Tests used:
Type in all cases: cell-based, human
[1] = tested on: hESC RUES2-derived AFE cells; experiment: Specification of anterior foregut endoderm (AFE) towards esophageal progenitor cells, day 6-16, gene expression by qPCR/immunostaining
Experimental: hPSCs were differentiated into endodermal and anterior foregut using a previously described protocol (Huang et al., 2015; Huang et al., 2014). Serum-Free Differentiation (SFD) medium was prepared as follows: 750 ml of reconstituted IMDM (ThermoFisher Scientific), 250 ml of F-12 (Corning), 7.5 ml of BSA (ThermoFisher Scientific), 10 ml of Glutamax (ThermoFisher Scientific), 5 ml of N2 (ThermoFisher Scientific), 10 ml of B27 (ThermoFisher Scientific) and 10 ml of Penicillin/Streptomycin (ThermoFisher Scientific), and adding L-Ascorbic acid (Sigma-Aldrich) and MTG (Sigma-Aldrich) on the day of use to obtain a final concentration of 50 μg/ml and 0.04 μl/ml, respectively. To generate endoderm, hPSCs were detached by Accutase/EDTA and cultured in SFD medium plus 10 μM Rock inhibitor 100 ng/ml Activin A, Y-27632 (Tocris), 2.5 ng FGF2 and 0.5 ng/ml BMP4 (R&D Systems) in 6-well Ultra-Low-Attachment plates (Corning) for 72 hours (day 1-4). At day 4, anterior foregut progenitor cells were further induced by culturing endoderm in SFD medium plus 10 μM SB431542 (Tocris) and 100 ng/ml Noggin (R&D Systems) for 24 hours (day 4-5) and SFD medium plus 10 μM SB431542 and 1 μM IWP-2 (Tocris) for another 24 hours (day 5-6). Cells were maintained at 5% O2/95% N2/5% CO2 from day 1-6.
To induce esophageal progenitor cell differentiation, anterior foregut progenitor cells were cultured from day 6 to day 16 in SFD medium plus 10 μM SB431542 and 50 ng/ml Noggin. From day 16 to day 24, cells were maintained at SFD medium. A previously described protocol was followed to generate lung progenitor cells from AFE (Huang et al., 2015; Huang et al., 2014) in which AFE cells were cultured in 3 μM CHIR99021 (Tocris), 10 ng/ml human FGF10 (R&D Systems), 10 ng/ml human KGF (R&D Systems), 10 ng/ml human BMP4 and 50 nM retinoid acid (RA, Sigma). Cells were cultured at 5% O2/95% N2/5% CO2 at day 6-7 and maintained at 95% air/5% CO2 from day 7 onwards.
For immunofluorescence staining, cells were fixed in 4% paraformaldehyde (PFA) for 15 minutes at room temperature and washed with 1×PBS for three times. Cells were permeabilized with 0.3% Triton X-100 in 1×PBS for 15 minutes. Then cells were incubated in blocking solution (0.3% Triton X-100 plus 2% donkey serum in 1×PBS) for 1 hour. Primary antibodies were added into blocking solution and incubated at 4° C. overnight. The next day, cells were washed with 1×PBS for three times. Secondary antibodies conjugated to Alexa Fluor 488, Cy3, or Alexa Fluor 647 (Jackson Immunoresearch) were incubated for 1 hour. Images were taken using Leica DMI6000 B (Leica Microsystems) or DMi8 (Leica Microsystems) and a Zeiss LSM700 confocal laser scanning microscope. Bright field images were acquired using a Nikon Labophot 2 microscope equipped with a Nikon Digital Sight DS-Ri1 charge-coupled device camera. The thickness and areas composed of KRT13^+ cells were calculated by ImageJ (National Institutes of Health). For X-gal staining, tissues were fixed in 4% paraformaldehyde for 30 minutes and incubated in X-gal solution overnight at 37° C. as previously described (Que et al., 2006).
(§1) Cells were lysed with TRIzol (Invitrogen) and RNA was purified using the RNeasy Mini Kit (QIAGEN). RNA was reversely transcribed to cDNA by the SuperScript III First-Strand SuperMix (Invitrogen). cDNA was quantified by real-time PCR using the iQ SYBR Green Supermix (Bio-Rad) and StepOnePlus™ Real-Time PCR System (Applied Biosystems). The transcript level of each gene was normalized to the ß-actin control using 2(−ΔΔCT) method. Relative gene expression was calculated and reported as fold change compared to the indicated samples using ß-actin normalized transcript level. All qRT-PCR experiments were performed at least triplicate.

NOTCH signaling = experiment: Expression of NOTCH downstream targets in iPSC-derived EPCs; settings: 10 μM
Experimental: as §1
(§2) It was then tested whether NOTCH signaling is involved in the differentiation of hPSC-derived EPCs. The iPSC-derived EPCs were treated with 10 μM γ-secretase inhibitor DAPT to block NOTCH signaling. As expected, treatment with DAPT led to downregulation of HESS, HEY1 and HEY2, the downstream targets of NOTCH signaling (Kopan and Ilagan, 2009).

hPSC-derived EPCs = experiment: Squamous differentiation of purified hPSC-derived EPCs (KRT13, INV, KRT14 levels)
Experimental: To perform cell surface marker staining, cells were disassociated with 0.05% Trypsin-EDTA (ThermoFisher Scientific) and stained with fluorophore conjugated antibodies in FACS buffer (1×PBS, 2% FBS, 0.2 mM EDTA) for 30 min with live/dead staining dye (LIVE/DEAD™ Fixable Violet Dead Cell Stain Kit, ThermoFisher Scientific) to exclude dead cells. Intracellular staining cells were performed according to the manufacturer's instructions in eBioscience™ Foxp3/Transcription Factor Staining Buffer Set (ThermoFisher Scientific). Fixation and permeabilization was performed at room temperature for 1 hour followed by incubation of primary antibody for 1 hour. Cells were washed with 1×PBS and fluorophore-conjugated secondary antibodies were incubated for 1 hour. Stained cells were analyzed BD FACSCanto (BD Biosciences) data were analyzed with FlowJo software (Ashland, Oregon). Sorted EPCAM^+ ITGß4^+ cells were maintained in the medium containing 5% FBS, 20 ng/ml EGF, 20 ng/ml FGF2 and 10 μM Rock inhibitor Y27632.
as §1
The inventors have previously shown that BMP signaling activation promotes terminal differentiation of esophageal progenitors in the developing and adult esophagus (Jiang et al., 2015; Rodriguez et al., 2010). It was asked whether purified hPSCs-derived EPCs (ESC and iPSC-derived) respond to BMP activation in a similar manner.
as §2

[2] = 10 μM, iPSC-derived EPCs, vs vehicle, FIG. 6D
[3] = WNT activation in the presence of Noggin and SB431542, FIG. 1F
[4] = BMP4 treatment vs vehicle, ESC and iPSC-derived EPCs, FIGS. 6A-B

For `C[C@H](NC(=O)Cc1cc(F)cc(F)c1)C(=O)N[C@H](C(=O)OC(C)(C)C)c1ccccc1` [DAPT], the “initial EPC commitment from the AFE” value ([1]; DAPT applied during PSC differentiation from AFE to EPC, FIG. 6C) was “did not affect”, the “HESS expression (downstream target of NOTCH signaling)” value (NOTCH signaling) was “downregulation” and the “HEY1 expression (downstream target of NOTCH signaling)” value (NOTCH signaling) was “downregulation”. For the same molecule, the “HEY2 expression (downstream target of NOTCH signaling)” value (NOTCH signaling) was “downregulation”, the “expression of INV at the transcription and protein levels” value (hPSC-derived EPCs; [2]) was “reduced expression” and the “expression of KRT13 at the transcription and protein levels” value (hPSC-derived EPCs; [2]) was “reduced expression”.

In the case of `Cc1c[nH]c(-c2cnc(NCCNc3ccc(C#N)cn3)nc2-c2ccc(Cl)cc2Cl)n1` [GSK inhibitor], the “levels of the general foregut marker SOX2” value [1, 3] is reported as “remained unchanged”, the “levels of the posterior foregut marker HNF6” value [1, 3] is reported as “increased” and the “levels of the posterior foregut marker PROX1” value [1, 3] is reported as “increased”. The p63 expression [1, 3] was “reduced p63 expression in a dose-dependent manner”.

For `Cc1ccc2nc(NC(=O)CSc3nc4c(c(=O)n3-c3ccccc3)SCC4)sc2c1` [IWP2], the esophageal specification ([1]; Noggin plus SB431542 in combination with 0.5, 1 or 2 μM IWP2, day 6 to day 16, gene expression at day 16, FIG. 1I) was “does not affect” and the p63 expression ([1]; added to culture treated with Noggin and SB431542 at day 6-16, FIG. 1I) was “did not further promote”.

B1: BMP4: BMP signaling activator, growth factor (R&D Systems) (protein, UniProt P12644 293-408, looked up)
Bone morphogenetic protein 4: SPKHHSQRARKKNKNCRRHSLYVDFSDVGWNDWIVAPPGYQAFYCHGDCPFPLADHLNSTNHAIVQTLVNSVNSSIPKACCVPTELSAISMLYLDEYDKVVLKNYQEMVVEGCGCR
B1 was tested, and the “differentiation of hPSC-derived EPCs” value (hPSC-derived EPCs; BMP4 treatment) was “promotes”, the “levels of Involucrin (INV)” value (hPSC-derived EPCs; [4]) was “significantly increase” and the “levels of KRT13” value (hPSC-derived EPCs; [4]) was “significantly increase”. For the same molecule, the “levels of KRT14” value (hPSC-derived EPCs; BMP4 treatment, FIG. 6B) was “increased”.

B2: DKK1: WNT inhibitor (protein, UniProt O94907 32-266, looked up)
Dickkopf-related protein 1: TLNSVLNSNAIKNLPPPLGGAAGHPGSAVSAAPGILYPGGNKYQTIDNYQPYPCAEDEECGTDEYCASPTRGGDAGVQICLACRKRRKRCMRHAMCCPGNYCKNGICVSSDQNHFRGEIEETITESFGNDHSTLDGYSRRTTLSSKMYHTKGQEGSVCLRSSDCASGLCCARHFWSKICKPVLKEGQVCTKHRRKGSHGLEIFQRCYCGEGLSCRIQKDHHQASNSSRLHTCQRH
For B2, the p63 expression ([1]; WNT inhibitor alone, hPSCs, FIG. 1E) was “insufficient”.

B3: Noggin: BMP inhibitor (R&D Systems) (protein, UniProt Q13253 28-232, looked up)
Noggin: QHYLHIRPAPSDNLPLVDLIEHPDPIFDPKEKDLNETLLRSLLGGHYDPGFMATSPPEDRPGGGGGAAGGAEDLAELDQLLRQRPSGAMPSEIKGLEFSEGLAQGKKQRLSKKLRRKLQMWLWSQTFCPVLYAWNDLGSRFWPRYVKVGSCFSKRSCSVPEGMVCKPSKSVHLTVLRWRCQRRGGQRCGWIPIQYPIISECKCSC
In the case of B3, the “AFE differentiation into p63+ NKX2.1- EPCs” value ([1]; Noggin treatment alone at day 6-16, FIG. 1E) is reported as “insufficient”.
